Literature values as cited in patent US9750250B2, “Conjugated polyelectrolytes and methods of using the same” (STC.UNM, priority 2015, dated 2017).

Conditions: deuterated methanol

## CC(=O)c1ccc2ccccc2c1 [2′-acetonaphthone]
  singlet oxygen quantum yield ΦΔ of the standard: 0.79±0.02
